Consider one compound from US20150050371A1, “Extract Formulations of Rhodamnia Cinerea And Uses Thereof” (BIOTROPICS MALAYSIA BERHAD, priority 2012, published 2015).

Each structure is given as a SMILES string. Marks after values point to notes of the source that are not given here.

For this assay, the system named is normal male Wistar rats. The experiment in a line: Acute Starch Tolerance Test (STT), glycemia after oral wheat starch. In kind it is in vivo, rat. Particulars: 5 mg/kg oral. Here is the method:
An acute Starch Tolerance Test (STT) was performed by the administration by oral gavage of a 7.5% purified wheat starch solution at 1.5 g/kg of body weight to normal male Wistar rats. The effect of a concomitantly administered hot water extract formulation from Rhodamnia cinerea leaves (BTP-00167-14; ref. example 1.2) on the glycemic index was measured at different doses orally administered (50 and 200 mg/kg of body weight). The extract formulation BTP-00167-14 was administered by oral route concomitantly with wheat starch solutions. Glycemia was measured before and 15, 30, 60, 90, and 120 min after mixture administration. The positive control group received acarbose at 5 mg/kg of body weight together with the starch. The actual volume administered to each rat was calculated and adjusted based on the most recent body weight of each animal. STT onset was between 12:00 p.m. (noon) and 1:00 p.m. on animals fasted overnight. Blood samples (one drop) were collected via the tail vein for glucose determination using a hand-held glucometer before and 15, 30, 60, 90, and 120 min after starch administration. Seven-week old rats weighing around 135 g were used for the experiment. One day before the test, rats were randomly assigned to the different experimental groups. Delta glycemia values were calculated by subtraction of the pre-STT glycemia values (Time 0). Values represent average (i.e. mean) values.

As for `C[C@H]1O[C@H](O[C@H]2[C@H](O)[C@@H](O)[C@@H](O[C@H]3[C@H](O)[C@@H](O)C(O)O[C@@H]3CO)O[C@@H]2CO)[C@H](O)[C@@H](O)[C@@H]1N[C@H]1C=C(CO)[C@@H](O)[C@H](O)[C@H]1O` (stereo partly drawn) [Acrabose, acarbose], for the setting “15 min after starch”, the “Glycemia 15 min” value is reported as 72.4** mg/dL. Where the note is “30 min after starch”, the “Glycemia 30 min” value is listed as 83.7** mg/dL. For the same compound, the “Glycemia 60 min” value (60 min after starch) is on record as 71.7** mg/dL. For the same compound, the “Glycemia 90 min” value (90 min after starch) is 66.0** mg/dL. The “Glycemia 120 min” value (120 min after starch) is listed as 61.9** mg/dL. In addition, where the note is “before administration”, the “Glycemia 0 min” value was 55.0 mg/dL.
